Measured values from publication PMC7567103 (Nature Communications, 2020).
pEC50: −log10 of the molar value.

Columns and labels:
Format in all cases: cell-based
[1] = biological target: T1, GHRHR E122A (Homo sapiens, UniProt Q02643, E122A); test: cAMP accumulation, E122A; conditions: mean ± SEM, n ≥ 3
T1 construct: GHRHR(23-423)-; HA signal peptide (replaces native signal M1-G22) (N); expressed in transfected cells; host or cells: HEK 293T, pcDNA3.1, transient
From the text: (§1) Fig. 2 Molecular recognition of GHRH by GHRHR and comparison of that with LA-PTH–PTH1R and GLP-1–GLP-1R. a Detailed interaction between GHRH and the TMD pocket of GHRHR with hydrogen bonds shown as dotted lines. b, c Pairwise comparison of GHRH bound to GHRHR with GLP-1 and LA-PTH in complex with their corresponding receptors, showing the relative positions of peptide ligands. Lime green, GHRHR; blue, GHRH; red, PTH1R and LA-PTH; purple, GLP-1R and GLP-1. d–f The effects of mutation in the ligand-binding pocket on cAMP accumulation. cAMP levels were measured in wild-type (WT) receptor and alanine mutants in ECL1, 2, and 3 (d), TM1, 2, and 3 (e), and TM5, 6, and 7 (f). cAMP signals were normalized to the maximum response of WT and concentration–response curves were analyzed using a three-parameter logistic equation. Data shown are means ± S.E.M. of at least three independent experiments (n = 3–5), conducted in triplicate. Source data are provided as a Source data file.
(§2) GHRH-stimulated cAMP accumulation was measured by a LANCE Ultra cAMP kit (PerkinElmer). […] After 1 h RT incubation, TR-FRET signals (excitation: 320 nm, emission: 615 and 665 nm) were measured by an EnVision (PerkinElmer).

[2] = biological target: T2, GHRHR L358A (Homo sapiens, UniProt Q02643, L358A); test: cAMP accumulation, L358A; conditions: mean ± SEM, n ≥ 3
T2 construct: GHRHR(23-423)-; HA signal peptide (replaces native signal M1-G22) (N); expressed in transfected cells; host or cells: HEK 293 T
From the text: as §1, §2

[3] = biological target: T3, GHRHR A271F (Homo sapiens, UniProt Q02643, A271F); test: cAMP accumulation, A271F; conditions: mean ± SEM, n ≥ 3
T3 construct: GHRHR(23-423)-; HA signal peptide (replaces native signal M1-G22) (N); expressed in transfected cells; host or cells: HEK 293T, pcDNA3.1, transient
From the text: as §1, §2

[4] = biological target: T4, GHRHR S209A (Homo sapiens, UniProt Q02643, S209A); test: cAMP accumulation, S209A; conditions: mean ± SEM, n ≥ 3
T4 construct: GHRHR(23-423)-; HA signal peptide (replaces native signal M1-G22) (N); expressed in transfected cells; host or cells: HEK 293T, pcDNA3.1, transient
From the text: as §1, §2

[5] = biological target: T5, GHRHR D193A (Homo sapiens, UniProt Q02643, D193A); test: cAMP accumulation, D193A; conditions: mean ± SEM, n ≥ 3
T5 construct: GHRHR(23-423)-; HA signal peptide (replaces native signal M1-G22) (N); expressed in transfected cells; host or cells: HEK 293T, pcDNA3.1, transient
From the text: as §1, §2

[6] = biological target: T6, GHRHR D274A (Homo sapiens, UniProt Q02643, D274A); test: cAMP accumulation, D274A; conditions: mean ± SEM, n ≥ 3
T6 construct: GHRHR(23-423)-; HA signal peptide (replaces native signal M1-G22) (N); expressed in transfected cells; host or cells: HEK 293T, pcDNA3.1, transient
From the text: as §1, §2

[7] = biological target: T7, GHRHR C195A (Homo sapiens, UniProt Q02643, C195A); test: cAMP accumulation, C195A; conditions: mean ± SEM, n ≥ 3
T7 construct: GHRHR(23-423)-; HA signal peptide (replaces native signal M1-G22) (N); expressed in transfected cells; host or cells: HEK 293T, pcDNA3.1, transient
From the text: as §1, §2

[8] = biological target: T8, GHRHR(23-423) (WT) (Homo sapiens, UniProt Q02643); test: cAMP accumulation, construct GHRHR(23-423) (WT) (Supplementary Fig. 2b); conditions: HEK 293T; mean ± SEM, n = 8-10
T8 construct: 24 h after transfection with GHRHR(23-423), GHRHR(23-405), GHRHR(23-405)-LgBiT-2MBP, or HA-Flag-GHRHR (WT and mutants); HA signal peptide (replaces native signal M1-G22) (N); expressed in transfected cells; host or cells: HEK 293 T
T8 sequence (Q02643 23-423): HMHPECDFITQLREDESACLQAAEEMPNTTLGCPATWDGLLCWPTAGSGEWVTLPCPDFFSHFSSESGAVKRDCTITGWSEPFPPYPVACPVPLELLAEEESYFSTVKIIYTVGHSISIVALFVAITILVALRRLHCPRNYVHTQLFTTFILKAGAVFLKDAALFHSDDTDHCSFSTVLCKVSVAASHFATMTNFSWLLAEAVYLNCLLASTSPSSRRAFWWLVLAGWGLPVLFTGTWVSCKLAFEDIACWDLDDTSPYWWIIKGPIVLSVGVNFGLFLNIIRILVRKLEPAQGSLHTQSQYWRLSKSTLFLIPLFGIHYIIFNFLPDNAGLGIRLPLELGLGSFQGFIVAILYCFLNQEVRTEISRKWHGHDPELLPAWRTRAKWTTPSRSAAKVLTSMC
Procedure: GHRH-stimulated cAMP accumulation was measured by a LANCE Ultra cAMP kit (PerkinElmer). Briefly, 24 h after transfection with GHRHR(23-423), GHRHR(23-405), GHRHR(23-405)-LgBiT-2MBP, or HA-Flag-GHRHR (WT and mutants), HEK 293 T cells (3000/well in 384-well white plates, PerkinElmer) were digested by 0.2% (w/v) EDTA and 5 μL stimulation buffer (HBSS supplemented with 5 mM HEPES, 0.5 mM IBMX, and 0.1% (w/v) BSA, pH 7.4). Different concentrations (5 μL) of GHRH were then added and the stimulation lasted for 30 min at RT. The reaction was stopped by adding 5 μL Eu-cAMP tracer and 5 μL ULight-anti-cAMP. After 1 h RT incubation, TR-FRET signals (excitation: 320 nm, emission: 615 and 665 nm) were measured by an EnVision (PerkinElmer).
223 Supplementary Ta b l e 1. Effects of GHRH-mediated cAMP accumulation.
Receptor cAMP Cell surface expression Binding
pEC50 Emax (% WT) (% WT) pIC50 […]
225 to determine pEC50 and Emax values. pEC50 is the negative logarithm of the molar
226 concentration of agonist that induced half the maximal response. Cell surface […]
228 Flag antibody (Sigma-Aldrich, 1:300); Donkey anti-Mouse Alexa Fluor 488-
229 conjugated secondary antibody, (ThermoFisher Scientific, 1:1000)] on the […]
231 Binding data were analyzed using a three-parameter logistic equation to […]
234 determine statistical difference. *P<0.01; ND, not determined.

T4 sequence (Q02643 23-423 S209A): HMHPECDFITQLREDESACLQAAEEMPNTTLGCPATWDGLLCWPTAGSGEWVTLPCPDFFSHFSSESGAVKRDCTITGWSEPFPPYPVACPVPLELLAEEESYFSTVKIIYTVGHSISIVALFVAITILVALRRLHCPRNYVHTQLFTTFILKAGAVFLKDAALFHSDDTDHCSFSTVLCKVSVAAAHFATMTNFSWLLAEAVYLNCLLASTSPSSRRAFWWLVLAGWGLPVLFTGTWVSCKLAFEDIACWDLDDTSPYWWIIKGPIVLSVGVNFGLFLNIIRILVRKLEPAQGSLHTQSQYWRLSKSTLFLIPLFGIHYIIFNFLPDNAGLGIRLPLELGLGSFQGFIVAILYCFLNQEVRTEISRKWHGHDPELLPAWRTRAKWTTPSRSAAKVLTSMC
T6 sequence (Q02643 23-423 D274A): as the sequence (Q02643 23-423 S209A) above, with A187S, D252A counted along it
T3 sequence (Q02643 23-423 A271F): as the sequence (Q02643 23-423 S209A) above, with A187S, A249F counted along it
T5 sequence (Q02643 23-423 D193A): as the sequence (Q02643 23-423 S209A) above, with D171A, A187S counted along it
T2 sequence (Q02643 23-423 L358A): as the sequence (Q02643 23-423 S209A) above, with A187S, L336A counted along it
T1 sequence (Q02643 23-423 E122A): as the sequence (Q02643 23-423 S209A) above, with E100A, A187S counted along it
T7 sequence (Q02643 23-423 C195A): as the sequence (Q02643 23-423 S209A) above, with C173A, A187S counted along it

With `CC[C@H](C)[C@H](NC(=O)[C@H](C)NC(=O)[C@H](CC(=O)O)NC(=O)[C@H](C)NC(=O)[C@@H](N)Cc1ccc(O)cc1)C(=O)N[C@@H](Cc1ccccc1)C(=O)N[C@H](C(=O)N[C@@H](CC(N)=O)C(=O)N[C@@H](CO)C(=O)N[C@@H](Cc1ccc(O)cc1)C(=O)N[C@@H](CCCNC(=N)N)C(=O)N[C@@H](CCCCN)C(=O)N[C@H](C(=O)N[C@@H](CC(C)C)C(=O)NCC(=O)N[C@@H](CCC(N)=O)C(=O)N[C@@H](CC(C)C)C(=O)N[C@@H](CO)C(=O)N[C@@H](C)C(=O)N[C@@H](CCCNC(=N)N)C(=O)N[C@@H](CCCCN)C(=O)N[C@@H](CC(C)C)C(=O)N[C@@H](CC(C)C)C(=O)N[C@@H](CCC(N)=O)C(=O)N[C@@H](CC(=O)O)C(=O)N[C@H](C(=O)N[C@@H](CCSC)C(=O)N[C@@H](CO)C(=O)N[C@@H](CCCNC(=N)N)C(=O)N[C@@H](CCC(N)=O)C(=O)N[C@@H](CCC(N)=O)C(=O)NCC(=O)N[C@@H](CCC(=O)O)C(=O)N[C@@H](CO)C(=O)N[C@@H](CC(N)=O)C(=O)N[C@@H](CCC(N)=O)C(=O)N[C@@H](CCC(=O)O)C(=O)N[C@@H](CCCNC(=N)N)C(=O)NCC(=O)N[C@@H](C)C(=O)N[C@@H](CCCNC(=N)N)C(=O)N[C@@H](C)C(=O)N[C@@H](CCCNC(=N)N)C(=O)N[C@@H](CC(C)C)C(N)=O)[C@@H](C)CC)C(C)C)[C@@H](C)O` [GHRH, Growth hormone-releasing hormone] as the compound, how does the pEC50 [1] read?
Its pEC50 is 9.96.

And the Emax [1]?
Its Emax is 98.38±3.26 % WT.

And the pEC50 [2]?
Its pEC50 is 8.98.

And the Emax [2]?
Its Emax is 100.3±1.21 % WT.

What about the pEC50 [3] of the same compound?
Its pEC50 is 9.73.

What about the Emax [3] of the same compound?
Its Emax is 103.70±0.64 % WT.

And the pEC50 [4]?
Its pEC50 is 9.96.

What about the Emax [4] of the same compound?
Its Emax is 100.52±0.43 % WT.

What about the pEC50 [5] of the same compound?
The pEC50 was 9.94.

What about the Emax [5] of the same compound?
The Emax was 101.42±1.02 % WT.

What about the pEC50 [6] of the same compound?
The pEC50 was 9.33.

And the Emax [6]?
Its Emax is 99.78±2.32 % WT.

What about the pEC50 [7] of the same compound?
Its pEC50 is 7.67.

What about the Emax [7] of the same compound?
Its Emax is 95.22±1.05 % WT.

What about the pEC50 [8] of the same compound?
The pEC50 was 9.20.

And the Emax [8]?
The Emax was 100 % WT.
